{"source": "patent US20260242373A1", "about": "“NBD1 MODULATORS AND METHODS OF USING THE SAME” (Sionna Therapeutics Inc., priority 2023, published 2026)", "key": {"[1]": {"system": "Primary human bronchial epithelial cells from a ΔF508 homozygous CF donor (CF-HBE cells)", "test": "TECC24 recording of CFTR-mediated transepithelial chloride transport, AUC fold over DMSO", "assay_type": "cell-based", "conditions": "48 hours incubation, ratio of test agent AUC to vehicle AUC of forskolin-stimulated IEQ", "experimental": "The effects of a test agent on CFTR-mediated transepithelial chloride transport was measured using TECC24 recording analysis. Test agents were solubilized in DMSO. Solubilized test agents were mixed with incubation medium containing DMEM/F12, Ultroser G (2%; Crescent Chemical, catalog #67042), Hyclone Fetal Clone 11 (2%; GE Healthcare, catalog #SH30066.02), bovine brain extract (0.25%; Lonza, catalog #CC-4098), insulin (2.5 μg/mL), IL-13 (10 ng/mL), hydrocortisone (20 nM), transferrin ([…]), triiodothyronine (500 nM), ethanolamine (250 nM), epinephrine (1.5 μM), phosphoethanolamine (250 nM), and retinoic acid (10 nM). Primary human bronchial epithelial cells from a ΔF508 homozygous CF donor (CF-HBE cells; from University of North Carolina Cystic Fibrosis Tissue Procurement Center), grown on Transwell HTS 24-well cell culture inserts (Costar, catalog #3378), were exposed to test agents or controls dissolved in incubation medium. The CF-HBE cells were cultured at 36.5° C. for 48 hours before TECC24 recordings were performed in the presence or absence of test agent, a positive control or vehicle (DMSO).\nFollowing incubation, the transwell cell culture inserts containing the test agent or control-treated CF-HBE cells were loaded onto a TECC24 apparatus (TECC v7 or MTECC v2; EP Design) to record the transepithelial voltage (VT) and resistance (TEER) using 4 AgCl electrodes per well configured in current-clamp mode. The apical and basolateral bath solutions both contained (in mM) 140 NaCl, 5 KCl, 2 CaCl2), 1 MgCl2, 10 Hepes, and 10 glucose (adjusted to pH 7.4 with NaOH). To inhibit basal Na+ absorption, the ENaC inhibitor benzamil (10 μM) was added to the bath. Then, the adenylate cyclase activator, forskolin ([…]), was added to the bath to activate CFTR. The forskolin-stimulated Cl— transport was halted by addition of CFTR inhibitor-172 ([…]) to the bath at the end of the experiment to confirm specificity. […] Efficacy is expressed as the ratio of the test agent AUC divided by vehicle AUC. […]"}, "[2]": {"system": "NBD1", "test": "Aggregation analysis of NBD1 thermal stability by differential static light scattering (DSLS)", "assay_type": "binding, Human", "conditions": "100 μM compound; ΔTagg versus DMSO control", "experimental": "Purified recombinant NBD1 was produced using previously described methods (A. Schmidt, J. L. Mendoza, P. J. Thomas (2011) Biochemical and Biophysical Approaches to Probe CFTR Structure (365-376) M. D. Amaral, K. Kunzelmann (eds.), Cystic Fibrosis, Methods in Molecular Biology 741, Springer Science+Business Media). The effect of test compounds on thermal stability of NBD1 was evaluated by differential static light scattering (DSLS) using the Harbinger Stargazer-384 instrument (Epiphyte Three, Toronto, Canada). Test compounds were dissolved and diluted to desired concentrations in 100% DMSO. The compounds or DMSO controls (100 nL) were stamped into wells of a […] low volume optical plate (Corning Inc., Corning, NY) using the Echo 555 acoustic liquid handler (Labcyte Inc., San Jose, CA).\nNBD1 protein was diluted to 0.2 mg/ml in S200 buffer (50 mM Tris-HCl, 150 mM NaCl, 5 mM MgCl2, 2 mM ATP, 2 mM DTT, pH7.6) containing 1% glycerol. 10 uL of protein solution was aliquoted into the 384-well plate harboring the test compounds and 10 uL mineral oil was overlayed onto the protein solution, using the epMotion robotic liquid handler (Eppendorf North America, Hauppauge, NY). After placing into the Stargazer instrument, the plate was heated at 1° C. per minute to 70° C. Images were captured from 25° C. to 70° C. every 0.5° C. At the end of the experiment run, instrument software integrated image files and analyzed data automatically. A […] regression curve was generated for each well, representing the increase in light scattering over time. A temperature of aggregation (Tagg) was calculated based on the inflection point of the curve. To better compare data across experiments the average Tagg for DMSO control wells was calculated and subtracted from values for wells containing compounds to obtain a “ΔTagg” value. These ΔTagg values reflect stabilizing efficacy of the compounds."}}, "data": [{"smiles": "Cc1c(Oc2ccc(F)c(-c3nc(Cc4csc(CCC(=O)O)c4)c[nH]3)c2)c(F)cc2[nH]ccc12", "note": "[Compound 4, 3-(4-((2-(2-fluoro-5-((6-fluoro-4-methyl-1H-indol-5-yl)oxy)phenyl)-1H-imidazol-4-yl)methyl)thiophen-2-yl)propanoic acid]", "values": [{"measurement": "TECC24 @ 10 uM over DMSO", "setting": "[1]", "value": "C (“C” refers to AUC @ 10 uM <=4)"}, {"measurement": "DSLS NBD1/3D Human Stability delta-T (° C.) @ 100 (μM)", "setting": "[2]", "value": "B (B: 4-8° C.)"}]}, {"smiles": "c1cc(Oc2ccc3[nH]ccc3c2)cc(-c2nnc(Cc3cccs3)[nH]2)c1", "note": "[Compound 10, 5-(3-(5-(thiophen-2-ylmethyl)-4H-1,2,4-triazol-3-yl)phenoxy)-1H-indole]", "values": [{"measurement": "TECC24 @ 10 uM over DMSO", "setting": "[1]", "value": "C (“C” refers to AUC @ 10 uM <=4)"}, {"measurement": "DSLS NBD1/3D Human Stability delta-T (° C.) @ 100 (μM)", "setting": "[2]", "value": "C (C: ≤4° C.)"}]}, {"smiles": "C[C@@H](c1nc(-c2cc(Oc3c(F)cc4[nH]ccc4c3F)ccc2F)n(C)n1)c1ccc(CCC(=O)O)s1", "note": "(single isomer, unassigned) [Compound 44]", "values": [{"measurement": "TECC24 @ 10 uM over DMSO", "setting": "[1]", "value": "C (“C” refers to AUC @ 10 uM <=4)"}, {"measurement": "DSLS NBD1/3D Human Stability delta-T (° C.) @ 100 (μM)", "setting": "[2]", "value": "B (B: 4-8° C.)"}]}]}
